Experimental data from PMC12267471, “Discovery of natural scaffolds as HER2 inhibitors for breast cancer: virtual screening, molecular dynamics, and biological characterization with selectivity profiling” (Scientific Reports, 2025).

How the values were obtained:
BT-474 cells [1] = assay: Transwell cell migration assay, BT-474; type: cell-based; conditions: Homo sapiens; BT-474, 3.5 µM, 24 h; read-out: inhibition of migration relative to vehicle-treated cells
Method: The in vitro transwell migration assay was conducted using an HTS-96 transwell permeable support chamber with 8 μm pores (Corning, USA) equipped with polyvinylpyrrolidone-free polycarbonate (PVPF) filters. […] The plate was incubated for 24 h at 37 °C. Then, the transwell inserts were incubated in the receiver plate with Calcein AM/cell dissociation solution at 37 °C in 5% CO2 incubator for 1 h, followed by measuring the fluorescence using a fluorescence plate reader with 485 nm excitation and 520 nm emission filter package. The relative fluorescence units were converted to cell count using a standard curve. The number of cells that moved to the lower side of the filter was used to assess migratory characteristics. The experiment in both cell lines was conducted in triplicate and data are presented as the mean ± SD.

SKBR3 cells = assay: Wound healing assay, SKBR3; type: cell-based; conditions: Homo sapiens, SK-BR-3
Method: (§1) In a sterile flat-bottom 24-well plate, SKBR3 and BT-474 breast cancer cells were plated at a density of 1 × 10^5 cells/well. […] Wounds were then inflicted across each cell monolayer using a sterile 200 µL pipette tip. Media was aspirated, and cells were washed twice with PBS to remove floating cells and cell debris. Fresh serum-free media was placed up against the well wall to cover the bottom of the well and prevent further cell detachment. Incubation of cells was resumed for five hours at 37 °C in a humidified CO2 incubator. Subsequently, the media were substituted with fresh ones containing various doses of liquiritin, oroxin B, or DMSO as a vehicle control (3 replicates/group) along with EGF (100 ng/mL) as a scattering factor. Wound closure was microscopically monitored in vehicle-treated control wells, and the time frame for wound closure was determined to be 72 h. Before the closure of wounds in the vehicle-treated control wells, the media were removed, cells were washed with PBS and completely fixed using cold methanol for 20 min at 4 °C. An inverted VistaVision microscope was used to take pictures of the wounds monitored at zero and 72 h with a VistaVision Still camera (VWR, Radnor, PA).
(§2) Results were expressed as a percentage of cell migration according to the following Equation[16]: [drawing 2]
(§3) Where Tt is the wound thickness in treatment wells, TDMSO is the thickness of the wound in control wells treated by DMSO, and Tº is the thickness of the wound at zero time. Wound thickness was calculated in three or more randomly selected fields per treatment group.

caspase 3 = assay: Real-time PCR caspase gene expression in BT-474 cells; type: cell-based, human; conditions: BT-474, liquiritin at its IC50
Method: (§4) RNA extraction was performed using Qiagen total RNA extraction kit from seeded BT-474 cells untreated and treated with liquiritin at a concentration equivalent to its respective IC50 value (determined via prior proliferation assays) according to the manufacturer’s manual. NanoDrop Lite Plus spectrophotometer™ (ThermoScientific, USA) was used for quantitation and purity evaluation of the extracted total RNA. cDNA synthesis and real-time quantitative PCR were performed in one reaction tube using iScript™ One-Step RT-PCR Kit with SYBR® Green (Bio-Rad, USA) using primers listed in Table S2 per the instruction’s manual. The relative gene expression of caspases 3, 8, and 9 was analyzed using the 2^−ΔΔCT method along with untreated BT-474 cells as control and Glyceraldehyde-3-phosphate dehydrogenase (GAPDH) as a housekeeping gene. The data were expressed as fold change in gene expression.

caspase 9 = assay: as above; type: cell-based, human; conditions: BT-474, liquiritin at its IC50
Method: as §4

caspase 8 = assay: as above; type: cell-based, human; conditions: BT-474, liquiritin at its IC50
Method: as §4

HER2 kinase = target: T1, HER2 kinase (Homo sapiens, UniProt P04626); assay: Z'-LYTE Kinase Assay-Tyr6 Peptide biochemical HER2 kinase assay; conditions: cell-free Z'-LYTE, Tyr6 peptide substrate; read-out: IC50, inhibition of ATP-induced HER2 phosphorylation
T1 construct: HER2 purified kinase domain (amino acids 676–1255); purchased Thermo Fischer Scientific PV3590
Text: The Z’-LYTE™ Kinase Assay-Tyr6 Peptide kit (Thermo Fischer Scientific™, Madison, WI, USA) was employed to evaluate the potential of selected natural products to suppress the catalytic activity of HER2 kinase. The assay adopts a Fluorescence Resonance Energy Transfer (FRET) based method in a cell-free coupled-enzyme format with no use of antibodies. The assay method mainly relies on the difference in sensitivity of phosphorylated and non-phosphorylated peptides to proteolytic cleavage. This method is a ratio metric method that calculates the Emission Ratio of donor emission divided by acceptor emission after excitation of the donor fluorophore at 400 nm. In this assay, 20 µL/well reactions containing kinase buffer, 200 µM ATP, 4µM Z’-LYTE Tyr6 Peptide substrate, 2500 ng/mL HER2 kinase, and drugs of interest functioning as inhibitors were set up in 96-well plates. Each well received 10 µL of site-specific protease development solution after one hour of room temperature incubation. The incubation continued for a full hour. Following process termination, the kinase inhibitory activity and/or peptide substrate cleavage status were assessed using a plate reader (BioTek FLx800™) to measure the ratio of fluorescence signal at 445 nm (coumarin)/520 nm (fluorescein).
The IC50 value for each natural product was computed using XLfit® 4.1 software (ID Business Solutions Inc. (IDBS), Emeryville CA), applying non-linear regression of log concentration against the percentage of HER2 inhibition.
Utilizing the Z’-LYTE™ Kinase Assay-Tyr6 Peptide kit as a cell-free system for evaluating the inhibitory activity of HER2, the five natural products were evaluated for their capacity to inhibit HER2 phosphorylation. Since its kinase catalysis is necessary for all HER2-mediated activities, we attempted at this initial stage to validate the HER2 inhibitory ability of the five in silico hits directly on the HER2 purified kinase domain (amino acids 676–1255), that was in vitro phosphorylated to attain the maximum level of intrinsic kinase activity. In this assay, the substrate was Z’-LYTE™ Tyr6 peptide; thus, the changes in its phosphorylation can directly correlate with the HER2 kinase activity. In the meantime, tyrphostin AG 1478 was used as a positive control to ensure the validity of the assay. Lapatinib (Tykerb®) was included as a second positive control to benchmark virtual hits’ performance against clinically approved standards.

MCF10A cells = assay: MTT cytotoxicity assay, non-tumorigenic MCF10A; type: cell-based, human
BT-474 cells [2] = assay: MTT proliferation assay, BT-474; type: cell-based, human; conditions: Homo sapiens
BT-474 cells [3] = assay: Wound healing assay, BT-474; type: cell-based; conditions: Homo sapiens
Method: as §1, §2, §3

T1 sequence (P04626 676-1255): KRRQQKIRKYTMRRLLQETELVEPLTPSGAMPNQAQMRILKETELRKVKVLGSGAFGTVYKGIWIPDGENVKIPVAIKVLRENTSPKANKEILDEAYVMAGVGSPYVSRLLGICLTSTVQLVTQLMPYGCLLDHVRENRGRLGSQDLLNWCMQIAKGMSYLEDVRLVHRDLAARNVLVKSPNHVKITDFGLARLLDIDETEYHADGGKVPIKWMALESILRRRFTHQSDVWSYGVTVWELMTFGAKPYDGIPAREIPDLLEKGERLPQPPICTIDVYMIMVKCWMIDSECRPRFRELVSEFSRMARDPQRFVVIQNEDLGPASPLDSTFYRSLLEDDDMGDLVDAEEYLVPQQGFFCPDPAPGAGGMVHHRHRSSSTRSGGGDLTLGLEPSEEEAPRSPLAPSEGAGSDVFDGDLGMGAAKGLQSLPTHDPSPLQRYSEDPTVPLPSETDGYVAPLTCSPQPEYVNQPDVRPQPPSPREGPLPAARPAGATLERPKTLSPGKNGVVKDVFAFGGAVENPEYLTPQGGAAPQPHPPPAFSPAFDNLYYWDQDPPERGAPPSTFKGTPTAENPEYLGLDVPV

Compound: O=C1C[C@@H](c2ccc(O[C@@H]3O[C@H](CO)[C@@H](O)[C@H](O)[C@H]3O)cc2)Oc2cc(O)ccc21 [Liquiritin]
- inhibition at 3.5 µM (BT-474 cells [1]): ~76%
- inhibition at 3 µM (SKBR3 cells; SKBR3, 3 µM, 72 h, read-out: inhibition of cell migration): 22.1%
- inhibition at 6 µM (SKBR3 cells; SKBR3, 6 µM, 72 h, read-out: inhibition of cell migration): 32.8%
- inhibition at 10 µM (SKBR3 cells; SKBR3, 10 µM, 72 h, read-out: inhibition of cell migration): 38.2%
- inhibition at 20 µM (SKBR3 cells; SKBR3, 20 µM, 72 h, read-out: inhibition of cell migration): 54.1%
- IC50 (SKBR3 cells; SKBR3, wound healing, read-out: IC50, cell migration): 16.9 µM
- caspase 3 expression, fold change vs untreated cells (caspase 3): approximately 10.8 fold
- caspase 9 expression, fold change vs untreated cells (caspase 9): ~8.1 fold
- caspase-8 expression, fold increase (caspase 8): 2.6 fold
- IC50 (HER2 kinase): 0.0185 µM
- IC50 (MCF10A cells; Homo sapiens, MCF-10A, MCF10A, MTT, 24 h): 27.9 ± 1.1 µM
- selectivity index (SI) (MCF10A cells; IC50 MCF10A / IC50 BT-474): 8
- selectivity index (SI) (MCF10A cells; IC50 MCF10A / IC50 SKBR3): 4.4
- IC50 (BT-474 cells [2]; BT-474, MTT, 48 h (Table S8), read-out: Cell growth inhibition IC50): 3.5 µM
- IC50 (BT-474 cells [2]; BT-474, Table S9, read-out: IC50): 3.5 ± 0.1 µM
- inhibition at 2 µM (BT-474 cells [3]; BT-474, 2 µM, 72 h, read-out: inhibition of cell migration): 20%
- inhibition at 3 µM (BT-474 cells [3]; BT-474, 3 µM, 72 h, read-out: inhibition of cell migration): 25.6%
- inhibition at 5 µM (BT-474 cells [3]; BT-474, 5 µM, 72 h, read-out: inhibition of cell migration): 31.2%
- inhibition at 10 µM (BT-474 cells [3]; BT-474, 10 µM, 72 h, read-out: inhibition of cell migration): 50.6%
- IC50 (BT-474 cells [3]; BT-474, wound healing, read-out: IC50, cell migration): 10.4 µM
